Data as given in patent US6380201B1, “Methods of treating or ameliorating the symptoms of common cold or allergic rhinitis with serotonin 5-HT1F agonists” (Eli Lilly and Company, priority 1997, dated 2002).
Counter-ions that a name gives are not always drawn.

Experiments:
5-HT1F receptor = molecular target: T1, 5-HT1F receptor (Homo sapiens, UniProt P30939); details: cited from earlier work
T1 sequence (P30939 1-366): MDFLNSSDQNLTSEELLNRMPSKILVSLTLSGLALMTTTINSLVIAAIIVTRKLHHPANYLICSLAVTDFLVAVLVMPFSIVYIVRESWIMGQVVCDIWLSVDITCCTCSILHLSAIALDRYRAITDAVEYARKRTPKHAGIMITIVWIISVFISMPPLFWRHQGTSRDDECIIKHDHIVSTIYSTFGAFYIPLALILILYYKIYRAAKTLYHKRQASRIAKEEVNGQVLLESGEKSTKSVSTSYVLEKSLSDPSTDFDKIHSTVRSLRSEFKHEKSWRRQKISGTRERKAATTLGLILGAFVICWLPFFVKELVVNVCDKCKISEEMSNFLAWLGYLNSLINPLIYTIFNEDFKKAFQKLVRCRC

human 5-HT1D receptor = human 5-HT1D receptor (Homo sapiens, UniProt P28221); details: cited from earlier work
human 5-HT1D receptor, sequence (P28221 whole entry): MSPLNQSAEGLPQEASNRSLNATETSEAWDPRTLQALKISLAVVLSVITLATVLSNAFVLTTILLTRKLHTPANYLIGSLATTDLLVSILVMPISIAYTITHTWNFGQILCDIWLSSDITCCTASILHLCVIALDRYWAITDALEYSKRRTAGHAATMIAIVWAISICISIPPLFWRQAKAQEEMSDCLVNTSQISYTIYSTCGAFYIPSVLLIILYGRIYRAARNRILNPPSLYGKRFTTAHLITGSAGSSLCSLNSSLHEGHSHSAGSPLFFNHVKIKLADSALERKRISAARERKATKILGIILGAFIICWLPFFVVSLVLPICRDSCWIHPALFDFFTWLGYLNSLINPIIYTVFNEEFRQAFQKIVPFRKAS

Compound | melting point | further results
CN1CCC(c2c[nH]c3ccc(Sc4ccccc4)cc23)CC1 | 147 to 150 °C | 
CN1CCC(c2c[nH]c3ccc(NC(=O)c4ccccc4)cc23)CC1.O=C(O)C(=O)O | 130 °C | 
CN1CCC(c2c[nH]c3ccc(NC(=O)c4ccccc4Cl)cc23)CC1.O=C(O)/C=C/C(=O)O | 209 °C (dec.) | 
CN1CCC(c2c[nH]c3ccc(NC(=O)c4cccc(Cl)c4)cc23)CC1.O=C(O)/C=C/C(=O)O | 185 °C (dec.) | 
CN1CCC(c2c[nH]c3ccc(NC(=O)c4ccc(Cl)cc4)cc23)CC1.O=C(O)/C=C/C(=O)O | 163 °C (dec.) | 
COc1ccccc1C(=O)Nc1ccc2[nH]cc(C3CCN(C)CC3)c2c1.O=C(O)/C=C/C(=O)O | 90 °C (dec.) | 
COc1cccc(C(=O)Nc2ccc3[nH]cc(C4CCN(C)CC4)c3c2)c1.O=C(O)/C=C/C(=O)O | 152 °C (dec.) | 
COc1ccc(C(=O)Nc2ccc3[nH]cc(C4CCN(C)CC4)c3c2)cc1.O=C(O)/C=C/C(=O)O | 151 °C (dec.) | 
CN1CCC(c2c[nH]c3ccc(NC(=O)c4ccco4)cc23)CC1.O=C(O)/C=C/C(=O)O | 114 °C (dec.) | 
CN1CCC(c2c[nH]c3ccc(C(=O)c4ccc(F)cc4)cc23)CC1 | 89 °C | 
CN1CCC(c2c[nH]c3ccc(NC(=O)Cc4ccccc4)cc23)CC1.O=C(O)C(=O)O | < 90 °C | 
CCN1CCC(c2c[nH]c3ccc(NC(=O)c4ccco4)cc23)CC1 | 178 to 179 °C | 
CCN1CCC(c2c[nH]c3ccc(NC(=O)c4ccc(F)cc4)cc23)CC1.O=C(O)/C=C/C(=O)O | 152 to 155 °C | 
CN1CCC(c2c[nH]c3ccc(NC(=O)c4ccc(F)cc4Cl)cc23)CC1 | 159 to 162 °C | 
Cc1ccc(C(=O)c2ccc3[nH]cc(C4CCN(C)CC4)c3c2)cc1 | 92 °C | 
CN1CCC(c2c[nH]c3ccc(C(=O)c4ccc(C(F)(F)F)cc4)cc23)CC1 | 160 to 162 °C | 
CN1CCC(c2c[nH]c3ccc(C(=O)c4ccc(OC(F)(F)F)cc4)cc23)CC1 | 172 to 175 °C | 
CN1CCC(c2c[nH]c3ccc(C(=O)c4ccc(N(C)C)cc4)cc23)CC1 | 103 to 104 °C | 
CN1CCC(c2c[nH]c3ccc(C(=O)c4ccc5ccccc5c4)cc23)CC1 | 92 °C | 
CN1CCC(c2c[nH]c3ccc(C(=O)c4ccccn4)cc23)CC1 | 90 °C | 
CN1CCC(c2c[nH]c3ccc(NC(=O)c4cccc5ccccc45)cc23)CC1.Cl | 193 to 203 °C | 

Compound | melting point | further results
CN1CCC(c2c[nH]c3ccc(NC(=O)c4ccc5ccccc5c4)cc23)CC1 | 153 to 155.5 °C | 
O=C(Nc1ccc2[nH]cc(C3=CCNCC3)c2c1)c1ccc(F)cc1 | 241 °C (dec.) | 
O=C(Nc1ccc2[nH]cc(C3CCNCC3)c2c1)c1ccc(F)cc1 | 229 to 230 °C | 
COc1ccc(Sc2ccc3[nH]cc(C4CCN(C)CC4)c3c2)cc1 | 160 to 162 °C | 
CN1CCC(c2c[nH]c3ccc(C(=O)c4ccc(Cl)cc4)cc23)CC1 | 133 °C | 
CN1CC=C(c2c[nH]c3ccc(NS(C)(=O)=O)cc23)CC1 | 210 to 214 °C | 
CN1CC=C(c2cn(C)c3ccc(NS(C)(=O)=O)cc23)CC1 | 198 to 202 °C | 
Cc1[nH]c2ccc(NS(C)(=O)=O)cc2c1C1=CCN(C)CC1 | 176 to 184 °C | 
CCS(=O)(=O)Nc1ccc2[nH]cc(C3=CCN(C)CC3)c2c1 | 224 to 226 °C | 
CN1CC=C(c2c[nH]c3ccc(NS(=O)(=O)N(C)C)cc23)CC1 | 207 to 208 °C | 
CCN1CC=C(c2c[nH]c3ccc(NS(C)(=O)=O)cc23)CC1 | 218 to 219 °C (dec.) | 
CCCN1CC=C(c2c[nH]c3ccc(NS(C)(=O)=O)cc23)CC1 | 217 to 218.5 °C (dec.) | 
CC(C)N1CC=C(c2c[nH]c3ccc(NS(C)(=O)=O)cc23)CC1 | 211 to 213 °C (dec.) | 
CCCCN1CC=C(c2c[nH]c3ccc(NS(C)(=O)=O)cc23)CC1 | 202 to 204 °C | 
CN1CCC(c2c[nH]c3ccc(SCc4ccccc4)cc23)CC1 | 138 to 141 °C | 
CN1CCC(c2c[nH]c3ccc(NS(C)(=O)=O)cc23)CC1.O=C(O)C(=O)O | 119.1 °C | 
Cc1[nH]c2ccc(NS(C)(=O)=O)cc2c1C1CCN(C)CC1 | 124 to 128 °C | 
CCS(=O)(=O)Nc1ccc2[nH]cc(C3CCN(C)CC3)c2c1 | 176 to 178 °C | 
CN1CCC(c2c[nH]c3ccc(NS(=O)(=O)N(C)C)cc23)CC1 | 179 to 181 °C (dec.) | 
CCN1CCC(c2c[nH]c3ccc(NS(C)(=O)=O)cc23)CC1 | 179 to 181 °C | 
CCCN1CCC(c2c[nH]c3ccc(NS(C)(=O)=O)cc23)CC1 | 87 to 90 °C | 

Compound | melting point | further results
CCCCN1CCC(c2c[nH]c3ccc(NS(C)(=O)=O)cc23)CC1 | 78 °C | 
CN1CCC(c2c[nH]c3ccc(NS(=O)(=O)c4ccccc4)cc23)CC1 | 246 to 249 °C (dec.) | 
CN1CCC(c2c[nH]c3ccc(Sc4ccccn4)cc23)CC1 | 83 °C | 
CN1CCC(c2c[nH]c3ccc(NS(=O)(=O)c4ccc(I)cc4)cc23)CC1 | > 250 °C | 
CN1CCC(c2c[nH]c3ccc(N(S(=O)(=O)C(F)(F)F)S(=O)(=O)C(F)(F)F)cc23)CC1.Cl | 175 to 185 °C (dec.) | 
CN1CCC(c2c[nH]c3ccc(Sc4ccc(Cl)cc4)cc23)CC1 | 148 to 150 °C | 
CN1CCC(c2c[nH]c3ccc(NC(=O)Nc4ccccc4)cc23)CC1.Cl | 215 to 220 °C | 
CN1CCC(c2c[nH]c3ccc(C(=O)c4ccccc4)cc23)CC1 | 101 °C | 
CCCCC(=O)c1ccc2[nH]cc(C3CCN(C)CC3)c2c1.Cl | 242 to 245 °C | 
CN1CCC(c2c[nH]c3ccc(N4C(=O)c5ccccc5C4=O)cc23)CC1.O=C(O)C(=O)O | 224 °C | 
CC(=O)Nc1ccc2[nH]cc(C3=CCN(C)CC3)c2c1 | 186 to 189 °C | 
CCC(=O)Nc1ccc2[nH]cc(C3=CCN(C)CC3)c2c1.O=C(O)/C=C/C(=O)O | 170 to 173 °C | 
CN1CCC(c2c[nH]c3ccc(C(=O)Cc4ccccc4)cc23)CC1 | 69 °C | 
CN1CC=C(c2c[nH]c3ccc(NC(=O)c4ccccc4)cc23)CC1 | > 250 °C | 
CN1CC=C(c2c[nH]c3ccc(NC(=O)c4ccc(Cl)cc4)cc23)CC1 | 224 to 226 °C | 
COc1ccc(C(=O)Nc2ccc3[nH]cc(C4=CCN(C)CC4)c3c2)cc1 | 232 °C (dec.) | 
CN1CC=C(c2c[nH]c3ccc(NC(=O)c4ccc(F)cc4Cl)cc23)CC1 | 212 to 222 °C | 
CCN1CC=C(c2c[nH]c3ccc(NC(=O)c4ccc(F)cc4)cc23)CC1 | 127 to 135 °C (dec.) | 
CN1CC=C(c2c[nH]c3ccc(NC(=O)c4ccco4)cc23)CC1 | 190 °C (dec.) | 
CN1CC=C(c2c[nH]c3ccc(NC(=O)c4cccs4)cc23)CC1 | 229 to 233 °C (dec.) | 
CC(=O)Nc1ccc2[nH]cc(C3CCN(C)CC3)c2c1 | 161 to 165 °C (dec.) | 

Compound | melting point | further results
CCC(=O)Nc1ccc2[nH]cc(C3CCN(C)CC3)c2c1.O=C(O)/C=C/C(=O)O | 88 to 92 °C (dec.) | 
CN1CCC(c2c[nH]c3ccc(NC(=O)C(C)(C)C)cc23)CC1 | 214 to 216 °C (dec.) | 
CC(=O)c1ccc2[nH]c3c(c2c1)CC(N(C)C)CC3 (stereo not shown) | 181 to 182 °C | 
CN(C)[C@@H]1CCc2c([nH]c3ccc(Br)cc23)C1.I | 252 °C | 
Br.C=C(C)C(=O)Nc1ccc2[nH]c3c(c2c1)CC(N(C)C)CC3 (stereo not shown) | 236 to 238 °C | 
Br.CN(C)C1CCc2[nH]c3ccc(NC(=O)C4CC4)cc3c2C1 (stereo not shown) | 216 to 218 °C | 
Br.CN(C)C1CCc2[nH]c3ccc(NC(=O)C4CCC4)cc3c2C1 (stereo not shown) | 214 to 216 °C | 
Br.CN(C)C1CCc2[nH]c3ccc(NC(=O)C4CCCCC4)cc3c2C1 (stereo not shown) | 224 to 226 °C | 
Cl.NC1CCc2[nH]c3ccc(NC(=O)c4ccc(F)cc4)cc3c2C1 (stereo not shown) | 252 to 255 °C | 
Cl.O=C(Nc1ccc2[nH]c3c(c2c1)CC(NCCc1ccccc1)CC3)c1ccc(F)cc1 (stereo not shown) | 207 to 208 °C | 
Cl.O=C(Nc1ccc2[nH]c3c(c2c1)CC(NCCc1ccc(F)cc1)CC3)c1ccc(F)cc1 (stereo not shown) | 210 to 211 °C | 
NC1CCc2[nH]c3ccc(O)cc3c2C1 (stereo not shown) | 230 °C (dec.) | 
Cl.Oc1ccc2[nH]c3c(c2c1)CC(NCCc1ccccc1)CC3 (stereo not shown) | 178 to 180 °C | 
Cl.Oc1ccc2[nH]c3c(c2c1)CC(NCCc1ccc(F)cc1)CC3 (stereo not shown) | 160 °C (dec.) | 
Cl.Clc1ccc(CCNC2CCc3[nH]c4ccc(OCc5ccccc5)cc4c3C2)cc1 (stereo not shown) | 238 to 240 °C | 
Cl.Cn1cc(CCNC2CCc3[nH]c4ccc(O)cc4c3C2)cn1 (stereo not shown) | 286 °C (dec.) | 
CC(C)n1cc(CCNC2CCc3[nH]c4ccc(O)cc4c3C2)cn1.Cl (stereo not shown) | 251 to 253 °C | 
CC(C)N1CCC(c2c[nH]c3ccc(NS(C)(=O)=O)cc23)CC1 (as salt: salt) | 104 to 108 °C | 
CC(=O)c1ccc2[nH]cc(C3CCN(C)CC3)c2c1.Cl.O (hydrate or solvate) | 65 °C | 
NCCc1c[nH]c2ccc(C(N)=O)cc12 [5-carboxamidotryptamine] |  | affinity (5-HT1F receptor): low affinity
CNS(=O)(=O)Cc1ccc2[nH]cc(CCN(C)C)c2c1 [Sumatriptan] |  | affinity (human 5-HT1D receptor): high affinity; affinity (5-HT1F receptor): show affinity
